Test results: publication PMC9246205, “Olmesartan medoxomil self-microemulsifying drug delivery system reverses apoptosis and improves cell adhesion in trinitrobenzene sulfonic acid-induced colitis in rats” (Drug Delivery, 2022)

Legend:
Assay type in all cases: in vivo, rat
[1] = test system: reduced glutathione (GSH); test: Colonic GSH (ELISA, colon homogenate); settings: TNBS-colitic rats, 100 mg/kg/day orally, 7 days, mean ± SEM, n = 8
Protocol: (§1) The rats were food-deprived for a day, and colitis was induced as previously described (Wang et al., [2010]). Rats were anesthetized with ether and then a 5% TNBS (Sigma, St Louis, USA) (100 mg/kg) dissolved in 0.25 mL of 50% ethanol (v/v) (2:1) was administered by a polyethylene catheter introduced rectally to 6–8 cm from the anus. Rats were set in a head-down position for 30 seconds to avoid leakage of the solution (Lu et al., [2017]). Rats were randomly divided into seven groups (n = 8) including the normal control (NC) group, TNBS-colitic (positive control, PC) group, and five TNBS-colitic-treated groups which were orally given sulfasalazine (SSZ, 100 mg/kg/day, a reference treatment for IBD) (Yousefi-Ahmadipour et al., [2020]), low and high doses of OM (OML and OMH: 3.0 and 10.0 mg/kg/day (Nagib et al., [2013])) as a raw drug and as an OMS (OMSL and OMSH). OM was suspended in distilled water containing 0.25% carboxymethyl cellulose (Gorain et al., [2014]; Komesli et al., [2019]). The treatments were given for 7 days starting 4 hours after TNBS administration (Lu et al., [2017]). Rats were evaluated for the colitis activity score. […] The colon was excised, cleaned with ice-cold saline, measured for weight and length, and the macroscopic appearance was evaluated. Parts of the colon were homogenized and activities/levels of myeloperoxidase (MPO), tumor necrosis factor-α (TNF-α), interleukin-6 (IL-6), malondialdehyde (MDA), and reduced glutathione (GSH) were measured. The concentrations of olmesartan in plasma and colonic homogenate were measured by high performance liquid chromatography/mass spectrometry (HPLC/MS). […]
(§2) The colonic samples were homogenized using phosphate-buffered saline and a TissueLyser II (Qiagen) at 4 °C to yield a 10% homogenate. […] The colonic protein content was determined by using the Bradford method (Bradford, 1976). The activities and/or levels of MPO (a marker for neutrophil infiltration), TNF-α, IL-6, MDA, and GSH were measured using ELISA kits (MyBioSource, Inc. CA, USA) according to the manufacturer's guidelines and were expressed/mg protein.

[2] = test system: E-cadherin, Bax, Bcl-2, cleaved caspase-3; test: Western blot of colonic E-cadherin, Bax, Bcl-2 and cleaved caspase-3; settings: TNBS-colitic rats, 100 mg/kg/day orally, 7 days
Protocol: (§3) The rats were food-deprived for a day, and colitis was induced as previously described (Wang et al., [2010]). Rats were anesthetized with ether and then a 5% TNBS (Sigma, St Louis, USA) (100 mg/kg) dissolved in 0.25 mL of 50% ethanol (v/v) (2:1) was administered by a polyethylene catheter introduced rectally to 6–8 cm from the anus. Rats were set in a head-down position for 30 seconds to avoid leakage of the solution (Lu et al., [2017]). Rats were randomly divided into seven groups (n = 8) including the normal control (NC) group, TNBS-colitic (positive control, PC) group, and five TNBS-colitic-treated groups which were orally given sulfasalazine (SSZ, 100 mg/kg/day, a reference treatment for IBD) (Yousefi-Ahmadipour et al., [2020]), low and high doses of OM (OML and OMH: 3.0 and 10.0 mg/kg/day (Nagib et al., [2013])) as a raw drug and as an OMS (OMSL and OMSH). OM was suspended in distilled water containing 0.25% carboxymethyl cellulose (Gorain et al., [2014]; Komesli et al., [2019]). The treatments were given for 7 days starting 4 hours after TNBS administration (Lu et al., [2017]). Rats were evaluated for the colitis activity score. At end of the treatment period, blood was collected, and rats were sacrificed. The colon was excised, cleaned with ice-cold saline, measured for weight and length, and the macroscopic appearance was evaluated. Parts of the colon were homogenized and activities/levels of myeloperoxidase (MPO), tumor necrosis factor-α (TNF-α), interleukin-6 (IL-6), malondialdehyde (MDA), and reduced glutathione (GSH) were measured. The concentrations of olmesartan in plasma and colonic homogenate were measured by high performance liquid chromatography/mass spectrometry (HPLC/MS). Samples of the colon were obtained for hematoxylin and eosin (H&E) and immunohistochemical staining (Joo et al., [2015])). All evaluations were made by blinded observers. […]

[3] = test system: tumor necrosis factor-α (TNF-α); test: Colonic TNF-α (ELISA, colon homogenate); settings: TNBS-colitic rats, 100 mg/kg/day orally, 7 days, mean ± SEM, n = 8
Protocol: as §1, §2

caspase-3 = test: Colonic caspase-3 immunostaining; settings: TNBS-colitic rats, 100 mg/kg/day orally, 7 days
Protocol: (§4) The rats were food-deprived for a day, and colitis was induced as previously described (Wang et al., [2010]). Rats were anesthetized with ether and then a 5% TNBS (Sigma, St Louis, USA) (100 mg/kg) dissolved in 0.25 mL of 50% ethanol (v/v) (2:1) was administered by a polyethylene catheter introduced rectally to 6–8 cm from the anus. Rats were set in a head-down position for 30 seconds to avoid leakage of the solution (Lu et al., [2017]). Rats were randomly divided into seven groups (n = 8) including the normal control (NC) group, TNBS-colitic (positive control, PC) group, and five TNBS-colitic-treated groups which were orally given sulfasalazine (SSZ, 100 mg/kg/day, a reference treatment for IBD) (Yousefi-Ahmadipour et al., [2020]), low and high doses of OM (OML and OMH: 3.0 and 10.0 mg/kg/day (Nagib et al., [2013])) as a raw drug and as an OMS (OMSL and OMSH). OM was suspended in distilled water containing 0.25% carboxymethyl cellulose (Gorain et al., [2014]; Komesli et al., [2019]). The treatments were given for 7 days starting 4 hours after TNBS administration (Lu et al., [2017]). Rats were evaluated for the colitis activity score. At end of the treatment period, blood was collected, and rats were sacrificed. The colon was excised, cleaned with ice-cold saline, measured for weight and length, and the macroscopic appearance was evaluated. Parts of the colon were homogenized and activities/levels of myeloperoxidase (MPO), tumor necrosis factor-α (TNF-α), interleukin-6 (IL-6), malondialdehyde (MDA), and reduced glutathione (GSH) were measured. The concentrations of olmesartan in plasma and colonic homogenate were measured by high performance liquid chromatography/mass spectrometry (HPLC/MS). […]
(§5) Colonic sections were immunohistochemically stained for E-cadherin and Caspase-3 (ab13847; Abcam; 1:500 dilution). […] For MMP-9 immunostaining, the sections were probed with rabbit and mouse monoclonal anti-MMP-9 (1:150 dilution), detected with sheep anti-rabbit or anti-mouse IgG fluorescein isothiocyanate (1:500 dilution), and examined under a fluorescent microscope (Baugh et al., [1999]).

[4] = test system: matrix metalloproteinase-9 (MMP-9); test: Colonic MMP-9 immunostaining; settings: TNBS-colitic rats, 100 mg/kg/day orally, 7 days
Protocol: as §4, §5

[5] = test system: trinitrobenzene sulfonic acid-induced acute colitis; test: Colonic histopathological examination (H&E); settings: TNBS-colitic rats, 100 mg/kg/day orally, 7 days
Protocol: as §3, with “[2015])).” for “[2015])). All evaluations were made by blinded observers.”
The colonic parts were fixed in 10% buffered formalin and embedded in paraffin. Sections (3–5 µm) were prepared and stained with H&E. The degree of inflammation was expressed as mild, moderate, or severe (Wirtz et al., [2007]).

[6] = test system: trinitrobenzene sulfonic acid-induced acute colitis; test: Colonic macroscopic examination and colon weight/length ratio in TNBS-induced acute colitis; settings: TNBS-colitic rats, 100 mg/kg/day orally, 7 days
Protocol: The rats were food-deprived for a day, and colitis was induced as previously described (Wang et al., [2010]). Rats were anesthetized with ether and then a 5% TNBS (Sigma, St Louis, USA) (100 mg/kg) dissolved in 0.25 mL of 50% ethanol (v/v) (2:1) was administered by a polyethylene catheter introduced rectally to 6–8 cm from the anus. Rats were set in a head-down position for 30 seconds to avoid leakage of the solution (Lu et al., [2017]). Rats were randomly divided into seven groups (n = 8) including the normal control (NC) group, TNBS-colitic (positive control, PC) group, and five TNBS-colitic-treated groups which were orally given sulfasalazine (SSZ, 100 mg/kg/day, a reference treatment for IBD) (Yousefi-Ahmadipour et al., [2020]), low and high doses of OM (OML and OMH: 3.0 and 10.0 mg/kg/day (Nagib et al., [2013])) as a raw drug and as an OMS (OMSL and OMSH). OM was suspended in distilled water containing 0.25% carboxymethyl cellulose (Gorain et al., [2014]; Komesli et al., [2019]). The treatments were given for 7 days starting 4 hours after TNBS administration (Lu et al., [2017]). Rats were evaluated for the colitis activity score. At end of the treatment period, blood was collected, and rats were sacrificed. The colon was excised, cleaned with ice-cold saline, measured for weight and length, and the macroscopic appearance was evaluated. Parts of the colon were homogenized and activities/levels of myeloperoxidase (MPO), tumor necrosis factor-α (TNF-α), interleukin-6 (IL-6), malondialdehyde (MDA), and reduced glutathione (GSH) were measured. The concentrations of olmesartan in plasma and colonic homogenate were measured by high performance liquid chromatography/mass spectrometry (HPLC/MS). Samples of the colon were obtained for hematoxylin and eosin (H&E) and immunohistochemical staining (Joo et al., [2015])). All evaluations were made by blinded observers.
The colon was measured for weight and length. The degree of colonic damage regarding edema, ulceration, bleeding, and necrosis was expressed as mild, moderate, or severe (Ghia et al., [2006]).

interleukin-6 (IL-6) = test: Colonic IL-6 (ELISA, colon homogenate); settings: TNBS-colitic rats, 100 mg/kg/day orally, 7 days, mean ± SEM, n = 8
Protocol: as §1, §2

E-cadherin = test: Colonic E-cadherin immunostaining; settings: TNBS-colitic rats, 100 mg/kg/day orally, 7 days
Protocol: as §4, §5

[7] = test system: trinitrobenzene sulfonic acid-induced acute colitis; test: Disease activity score in TNBS-induced acute colitis; settings: TNBS-colitic rats, 100 mg/kg/day orally, 7 days; mean ± SEM, n = 8
Protocol: as §3, with “[2015])).” for “[2015])). All evaluations were made by blinded observers.”
The colitis activity index was measured to evaluate the activity of intestinal inflammation. The scores for weight loss, stool consistency, and fecal blood were calculated to give a disease activity score (DAS) as previously described (Wang et al., [2014]). […]

myeloperoxidase (MPO) = test: Colonic MPO activity (ELISA, colon homogenate); settings: TNBS-colitic rats, 100 mg/kg/day orally, 7 days, mean ± SEM, n = 8
Protocol: as §1, §2

## O=C(O)c1cc(/N=N/c2ccc(S(=O)(=O)Nc3ccccn3)cc2)ccc1O [SSZ, sulfasalazine]
[1]
  GSH: 39.75 ± 1.38 $ nmol/mg protein
[2]
  protein expression of colonic E-cadherin, Bax, Bcl-2, cleaved caspase-3 and Bcl-2/Bax ratio (Western blot): marked improvement
[3]
  TNF-α: 20.49 ± 0.73 $ pg/mg protein
caspase-3
  colonic caspase-3 expression (immunostaining): greatly decreased and nearly normalized
[4]
  colonic MMP-9 overexpression (immunostaining): marked improvement
[5]
  colonic histopathological damage (H&E): nearly normalized the colonic damage
[6]
  colonic macroscopic appearance (damage): greatly improved
[6]; mean ± SEM, n = 8
  Colon weight/length ratio: 78.23 ± 2.11 $ mg/cm
interleukin-6 (IL-6)
  IL-6: 65.06 ± 1.46 $ pg/mg protein
E-cadherin
  colonic E-cadherin expression (immunostaining): greatly upregulated and nearly normalized
[7]
  Disease activity score: 0.45 ± 0.06 $
Myeloperoxidase (MPO)
  MPO activity: 8.01 ± 0.30 $, @ U/mg protein
